Results from ChEMBL document CHEMBL2029343, “Stereoselective synthesis of alpinoid-C and its analogues and study of their cytotoxic activity against cancer cell lines” (Bioorg Med Chem Lett, 2012).

Tests used:
Type in all cases: functional, cell-based
U-937 = assay: Antiproliferative activity against human U937 cells after 48 hrs by MTT assay; conditions: U-937, 48 h
THP-1 = assay: Antiproliferative activity against human THP1 cells after 48 hrs by MTT assay; conditions: THP-1, 48 h
COLO 205 = assay: Antiproliferative activity against human COLO205 cells after 48 hrs by MTT assay; conditions: COLO 205, 48 h
HepG2 = assay: Antiproliferative activity against human HepG2 cells after 48 hrs by MTT assay; conditions: HepG2, 48 h
B16-F10 = assay: Antiproliferative activity against mouse B16F10 cells after 48 hrs by MTT assay; conditions: B16-F10, 48 h

Structure (SMILES)	IC50 (U-937) [µM]	IC50 (THP-1) [µM]	IC50 (COLO 205) [µM]	IC50 (HepG2) [µM]	IC50 (B16-F10) [µM]
O=C(/C=C/[C@H](O)Cc1ccccc1)CCc1ccccc1	139	120	195	185	130
O=C(/C=C/[C@@H](O)Cc1ccccc1)CCc1ccccc1	168	195	498	355	337
COc1ccc(CCC(=O)/C=C/[C@H](O)Cc2ccccc2)cc1OC	22.3	7.53	11.1	32.6	38.1
COc1ccc(CCC(=O)/C=C/[C@@H](O)Cc2ccccc2)cc1OC	31.9	32.3	7.21	53.5	96.9
COc1cc([C@@H]2c3cc4c(cc3[C@@H](O[C@@H]3O[C@@H]5CO[C@@H](C)O[C@H]5[C@H](O)[C@H]3O)[C@H]3COC(=O)[C@H]23)OCO4)cc(OC)c1O [ETOPOSIDE]			0.43	4.76	18.7
